Consider 2 molecules from patent US5627193A, “Quinoline-4-carbonylguanidine derivatives, process for producing the same and pharmaceutical preparations containing the compounds” (Mitsui Toatsu Chemicals, Inc., priority 1995, dated 1997).

Each structure is given as a SMILES string.

The test system of one data set is cardiac hypertrophy. The settings on record: Circulation, 86 (Suppl. I) I-177 (1992); cited from earlier work.
Data set [1] is described as follows: Toxicity test, mortality of mice after 24 hours. The settings on record: mouse, in vivo, iv, 100 mg/kg (i.v.), 3 mice. How it is done:
The test compound was administered to a ddy-strain male mouse, and the toxicity was examined. The test compound was administered intravenously (i.v.) in a dose of 100 mg/kg, and the toxicity was evaluated in terms of mortality of mice after 24 hours of the administration (number of specimens: one group consisting of 3 mice).

A further data set concerns rat. The experiment in a line: Effect on ischemic arrhythmia in the rat (left coronary artery ligated for 30 minutes). Type of data set: in vivo. The settings on record: 1 mg/kg i.v., five minutes before the ligation; rats with arrhythmia / rats. How it is done: A rat was anesthetized with pentobarbital, and the left chest was opened under artificial respiration. Then, the left coronary artery was ligated for 30 minutes. The effect of the test compound on ischemic arrhythmia was examined. The test agent was administered intravenously (i.v.) five minutes before the ligation. The arrhythmias were evaluated according to the guidelines of the Lambeth conventions [Cardiovasc. Res., 22, 447-455 (1988)].

Data set [2] has as its target T1, NHE (Na^+ /H^+ exchanger) (Rattus norvegicus, UniProt P26431).
T1 construct: A rat mesenteric artery was isolated; from tissue; host or cells: isolated rat mesenteric artery segments
The experiment in a line: NHE inhibitory activity (recovery of the pH in cells after acid load, BCECF, rat mesenteric artery). To be noted: read-out: Percent NHE inhibition (%). The data set is classed as cell-based. How it is done:
The NHE inhibitory activity was measured by the following method using a pH in cells as an index.
A rat mesenteric artery was isolated, and was loaded with a pH-sensitive dye BCECF. Subsequently, the tissue segments were mounted in a bath of an intracellular ion concentration measurement device (CAF-110, manufactured by Japan Spectral Co., Ltd.). The pH in cells was measured in terms of a ratio of fluorescent intensities through 2-wavelength excitation of 495 nm (pH-sensitive wavelength)/450 nm (pH-non-sensitive wavelength).
The pH in cells was shifted into acid through pretreatment with 20 mM ammonium chloride to activate NHE. At this time, when Na^+ ions were absent in an external solution, the intracellular acidosis was maintained. When Na^+ ions were present in an external solution, the pH in cells was recovered to a control value. This recovery of the pH in cells was ascribable to the activation of NHE. The NHE inhibitory activity of the medication was examined depending on whether or not this recovery was suppressed. The percent NHE inhibition was calculated from a change in pH (ΔpH) measured by the above-mentioned method using the following formula.
Percent NHE inhibition (%)={1-ΔpH (in the presence of a medication)/ΔpH (in the absence of a medication)}×100
This test was conducted by the method of C. D. Foster et al. [Am. J. Physiol., 262, 31, H1651-H1655 (1992)]. For comparison, the test was conducted with respect to guanidinocarbonylisoquinoline derivatives described in JP A 6-211799 (Family: EP590455).

T1 sequence (P26431 whole entry): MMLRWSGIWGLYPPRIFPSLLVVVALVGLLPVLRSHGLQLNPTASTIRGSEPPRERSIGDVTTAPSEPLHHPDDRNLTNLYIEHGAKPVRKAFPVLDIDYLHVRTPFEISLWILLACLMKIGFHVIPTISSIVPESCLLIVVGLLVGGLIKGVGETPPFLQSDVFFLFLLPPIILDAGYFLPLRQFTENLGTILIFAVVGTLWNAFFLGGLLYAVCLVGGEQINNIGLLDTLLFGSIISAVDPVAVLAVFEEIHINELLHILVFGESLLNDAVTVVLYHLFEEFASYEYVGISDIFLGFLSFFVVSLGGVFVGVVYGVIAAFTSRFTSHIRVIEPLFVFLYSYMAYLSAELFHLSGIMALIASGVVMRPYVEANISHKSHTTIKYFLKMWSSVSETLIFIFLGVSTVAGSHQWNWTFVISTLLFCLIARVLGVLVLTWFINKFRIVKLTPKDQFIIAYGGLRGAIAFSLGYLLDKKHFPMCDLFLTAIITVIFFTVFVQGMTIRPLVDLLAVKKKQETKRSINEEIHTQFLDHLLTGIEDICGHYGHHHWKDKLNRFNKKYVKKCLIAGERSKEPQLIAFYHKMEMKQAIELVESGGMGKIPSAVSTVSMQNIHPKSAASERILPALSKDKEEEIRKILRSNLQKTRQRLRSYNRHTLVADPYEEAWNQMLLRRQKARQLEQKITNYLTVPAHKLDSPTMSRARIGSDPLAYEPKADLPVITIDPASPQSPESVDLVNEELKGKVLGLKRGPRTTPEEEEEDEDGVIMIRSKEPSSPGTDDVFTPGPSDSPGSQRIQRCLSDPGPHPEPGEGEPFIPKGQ
T1 sequence (P61023 2-195 partner limits assumed): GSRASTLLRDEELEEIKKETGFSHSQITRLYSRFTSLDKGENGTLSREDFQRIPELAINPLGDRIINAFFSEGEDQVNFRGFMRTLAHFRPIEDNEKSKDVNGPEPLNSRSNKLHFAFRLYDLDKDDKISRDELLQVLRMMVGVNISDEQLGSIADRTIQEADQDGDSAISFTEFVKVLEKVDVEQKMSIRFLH

Turning to `N=C(N)NC(=O)c1nc(Cl)c(N)nc1N` [amiloride], the “suppression of cardiac hypertrophy” value in the data set with cardiac hypertrophy is “suppresses cardiac hypertrophy”.

Consider `COc1ccc(OC)c2c(C(=O)N=C(N)N)cc(-c3ccccc3C)nc12` [Example 42, 2-(2'-methylphenyl)-5,8-dimethoxyquinoline-4-carbonylguanidine], for which the mortality at 24 h in data set [1] was 0%. Also, in the data set with rat, the “Incidence of arrhythmia, VF (ventricular fibrillation)” value is listed as 0/4 and the “Incidence of arrhythmia, VT (ventricular tachycardia)” value is given as 2/4. In addition, in data set [2] (Conc. 0.1 μM), the inhibition at 0.1 µM worked out at 72.7%. For the same molecule, the inhibition at 1 µM in data set [2] (Conc. 1 μM) came to 89.1%.

For orientation: mortality means the share of the test organisms that died. High values mean a strong lethal effect, low ones a weak lethal effect. For orientation: inhibition means how much of the control response was suppressed.
